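48-hour exposure; five concentrations; linearly interpolated endpoints. At the TGI there is no net growth.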
Assays:
Assay in all cases: DTP human tumour cell line panel, 48 h
A549 NSCLC = test system: A549 NSCLC
ACHN renal = test system: ACHN renal
COLO 205 colon = test system: COLO 205 colon
DLD-1 colon = test system: DLD-1 colon
HOP-62 NSCLC = test system: HOP-62 NSCLC
HOP-92 NSCLC = test system: HOP-92 NSCLC
IGROV1 ovarian = test system: IGROV1 ovarian
M19-MEL melanoma = test system: M19-MEL melanoma
MOLT-4 leukemia = test system: MOLT-4 leukemia
NCI-H226 lung = test system: NCI-H226 lung
NCI-H460 lung = test system: NCI-H460 lung
RPMI-8226 leukemia = test system: RPMI-8226 leukemia
SK-MEL-2 melanoma = test system: SK-MEL-2 melanoma
SK-OV-3 ovarian = test system: SK-OV-3 ovarian
SR leukemia = test system: SR leukemia
TK-10 renal = test system: TK-10 renal
EKVX NSCLC = test system: EKVX NSCLC
HCT-15 colon = test system: HCT-15 colon
LOX IMVI melanoma = test system: LOX IMVI melanoma
SN12C renal = test system: SN12C renal

| Structure (SMILES) | TGI (A549 NSCLC) [µM] | TGI (ACHN renal) [µM] | TGI (COLO 205 colon) [µM] | TGI (DLD-1 colon) [µM] | TGI (HOP-62 NSCLC) [µM] | TGI (HOP-92 NSCLC) [µM] | TGI (IGROV1 ovarian) [µM] | TGI (M19-MEL melanoma) [µM] | TGI (MOLT-4 leukemia) [µM] | TGI (NCI-H226 lung) [µM] | TGI (NCI-H460 lung) [µM] | TGI (RPMI-8226 leukemia) [µM] | TGI (SK-MEL-2 melanoma) [µM] | TGI (SK-OV-3 ovarian) [µM] | TGI (SR leukemia) [µM] | TGI (TK-10 renal) [µM] | TGI (EKVX NSCLC) [µM] | TGI (HCT-15 colon) [µM] | TGI (LOX IMVI melanoma) [µM] | TGI (SN12C renal) [µM] |
| --- | --- | --- | --- | --- | --- | --- | --- | --- | --- | --- | --- | --- | --- | --- | --- | --- | --- | --- | --- | --- |
| CC(=O)Nc1ccc(C(=O)NN2C(=O)C(Cl)C2/C=C/c2ccccc2)cc1 (stereo unspecified) | > 100 | > 100 | > 100 | > 100 | > 100 | > 100 | > 100 | > 100 | > 100 | > 100 | > 100 | > 100 | > 100 | > 100 | > 100 | > 100 |  |  |  |  |
| COc1ccc(Nc2cnc3cc(N)ccc3n2)cc1OC |  | > 100 | > 100 | > 100 | > 100 | 42.5 | > 100 | > 100 | > 100 | > 100 | > 100 | 86.2 | > 100 | > 100 | > 100 | > 100 | > 100 | > 100 | > 100 | > 100 |
| Nc1[nH]nc2c1Cc1c(n(Cc3ccc(Cl)cc3)c3ccccc13)C(=O)N2 | 46.2 |  | 23.7 |  | 31.1 | 31.5 | 31.8 |  | 29.3 | 44.7 | 27.3 |  | 34.3 | 34.6 | > 100 | 35 | 59.2 | 16.8 | 26.4 | 28 |
